Here are results for one compound from PMC7695167, “Targeting the Interaction between the SH3 Domain of Grb2 and Gab2” (Cells, 2020).

This experiment addresses T1, C-SH3 Grb2 (C-terminal SH3 domain of Grb2) (Homo sapiens, UniProt P62993).
T1 construct: isolated C-terminal SH3 domain, recombinant, expressed and purified as previously reported
Briefly: tryptophan fluorescence, titration of preformed C-SH3:Gab2 peptide complex. The following applies: read-out: apparent inhibition constant. It is filed as binding.

Molecules are shown by their SMILES.

T1 sequence (P62993 159-217 limits assumed): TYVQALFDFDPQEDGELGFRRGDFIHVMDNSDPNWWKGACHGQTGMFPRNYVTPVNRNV

Regarding `CCOc1cc(CNCCc2ccc(OC)cc2)ccc1OCc1cccc(Cl)c1` [AN-465-J137-985, N-(4-((3-Chlorobenzyl)oxy)-3-ethoxybenzyl)-2-(4-methoxyphenyl)ethan-1-amine], the Ki is ~5 µM.
